Target: T1, human PKR1 receptors (Homo sapiens, UniProt Q8TCW9)
T1 construct: expressed in transfected cells; host or cells: RBL2H3 cells (rat basophilic leukaemia line) expressing human PKR1
Assay: PKR1 antagonist assay: block of PK1-mediated intracellular calcium release (FLIPR Tetra, Calcium 5 dye)
Format: cell-based
Settings: RBL2H3 cells expressing human PKR1; 10 min pre-incubation, stimulation with PK1 at EC80; calcium fluorescence
Experimental: Prokineticin receptor 1 (PKR1) antagonists may be functionally assessed by measurement of change in intracellular calcium levels induced by Gq mediated increase in inositol triphosphate (IP3) levels. The ability of a compound to block the intracellular release of calcium mediated by PK1 in RBL2H3 cells expressing human PKR1 receptors is determined as a measure of the compound's antagonist activity in vitro.
Approximately 10,000 cells per assay well are seeded in normal culture medium in a 384 well plate (Corning). Twenty-four hours after seeding, the cells are loaded with a calcium sensitive fluorescent dye by replacing the culture medium with assay buffer (1× Hanks buffered saline, 25 mM HEPES, 0.1% w/v fatty acid free BSA (bovine serum albumin), pH 7.4) containing 1 mM probenecid and 1× Calcium 5 Reagent (Molecular Devices). Cells are incubated at 37° C. for 1 hour to allow for dye uptake.
To test for antagonist activity, test compounds at a final concentration range between 0.32 nM-10 μM (diluted in assay buffer) are added to the assay wells and allowed to incubate for 10 minutes prior to stimulation with PK1. After incubation with test compounds the assay plate is placed in a FLIPR Tetra (Molecular Devices) and PK1 (diluted in assay buffer) is added at the determined EC80 concentration (final). Ligand-dependent changes in intracellular calcium levels are determined by measuring changes in fluorescence of the dye at […] following excitation at 485 nm.

T1 sequence (Q8TCW9 whole entry): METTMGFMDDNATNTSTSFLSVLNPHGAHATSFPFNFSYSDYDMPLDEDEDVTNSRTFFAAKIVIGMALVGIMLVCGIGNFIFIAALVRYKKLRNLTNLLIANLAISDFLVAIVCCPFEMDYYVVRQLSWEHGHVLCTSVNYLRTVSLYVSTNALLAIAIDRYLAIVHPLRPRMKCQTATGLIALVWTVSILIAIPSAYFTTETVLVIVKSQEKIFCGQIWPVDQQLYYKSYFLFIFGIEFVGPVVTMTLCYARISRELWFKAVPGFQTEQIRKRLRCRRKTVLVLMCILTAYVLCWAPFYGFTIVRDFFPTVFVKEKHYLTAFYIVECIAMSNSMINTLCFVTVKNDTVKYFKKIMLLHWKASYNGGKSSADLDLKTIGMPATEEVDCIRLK

## Cc1n[nH]c(C)c1S(=O)(=O)N1CCC(Cc2ccc(Cl)c(F)c2)CC1 [Example 71, 4-(4-Chloro-3-fluorobenzyl)-1-((3,5-dimethyl-1H-pyrazol-4-yl)sulfonyl)piperidine]
  IC50: 0.78 µM

## Cc1n[nH]c(C)c1S(=O)(=O)N1CCC(Oc2ccc(Cl)cc2C#N)CC1 [Example 34, 5-Chloro-2-{[1-(3,5-dimethyl-1H-pyrazole-4-sulfonyl)piperidin-4-yl]oxy}benzonitrile]
  IC50: 0.24 µM

## Cc1n[nH]c(C)c1S(=O)(=O)N1CCC(Cc2ccc(Cl)cc2F)CC1 [Example 82, 4-(4-Chloro-2-fluorobenzyl)-1-((3,5-dimethyl-1H-pyrazol-4-yl)sulfonyl)piperidine]
  IC50: 1.02 µM

## COc1cccc(OC2CCN(S(=O)(=O)c3c(C)nn(C)c3C)CC2)c1 [Example 17, 4-(3-Methoxyphenoxy)-1-[(1,3,5-trimethyl-1H-pyrazol-4-yl)sulfonyl]piperidine]
  IC50: 3.6 µM

## Cc1ccc(OC2CCN(S(=O)(=O)c3c(C(F)(F)F)nn(C)c3C)CC2)cc1 [Example 10, 1-{[1,5-Dimethyl-3-(trifluoromethyl)-1H-pyrazol-4-yl]sulfonyl}-4-(4-methylphenoxy)piperidine]
  IC50: 1.7 µM

## COc1cc(Cl)ccc1CC1(OC)CCN(S(=O)(=O)c2c(C)nn(C)c2C)CC1 [Example 87, 4-(4-Chloro-2-methoxybenzyl)-4-methoxy-1-((1,3,5-trimethyl-1H-pyrazol-4-yl)sulfonyl)piperidine]
  IC50: 5.88 µM

## Cc1nn(C)cc1S(=O)(=O)N1CCC(Oc2ccc(Cl)cc2Cl)CC1 [Example 27, 4-(2,4-Dichlorophenoxy)-1-[(1,3-dimethyl-1H-pyrazol-4-yl)sulfonyl]piperidine]
  IC50: 5.6 µM

## Cc1nn(C)c(C)c1S(=O)(=O)N1CCC(N(C)c2ccc(Cl)c(Cl)c2)CC1 [Example 54]
  IC50: 5.2 µM

## Cc1nn(C)c(C)c1S(=O)(=O)N1CCC(Oc2ccc(F)cc2)CC1 [Example 20, 4-(4-Fluorophenoxy)-1-[(1,3,5-trimethyl-1H-pyrazol-4-yl)sulfonyl]piperidine]
  IC50: 3.6 µM

## Cc1n[nH]c(C)c1S(=O)(=O)N1CCC(F)(Cc2ccc(Cl)cc2F)CC1 [Example 80, 4-(4-Chloro-2-fluorobenzyl)-1-((3,5-dimethyl-1H-pyrazol-4-yl)sulfonyl)-4-fluoropiperidine]
  IC50: 0.81 µM

## Cc1nn(C)c(C)c1S(=O)(=O)N1CCC(Oc2ccc(C(F)(F)F)cc2)CC1 [Example 12, 4-[4-(Trifluoromethyl)phenoxy]-1-[(1,3,5-trimethyl-1H-pyrazol-4-yl)sulfonyl]piperidine]
  IC50: 4.7 µM

## COc1ccc(OC2CCN(S(=O)(=O)c3c(C)nn(C)c3C)CC2)cc1F [Example 43, 4-(3-Fluoro-4-methoxyphenoxy)-1-(trimethyl-1H-pyrazole-4-sulfonyl)piperidine]
  IC50: 6.3 µM

## CCOC(=O)C1(Cc2ccc(Br)cc2)CCN(S(=O)(=O)c2c(C)nn(C)c2C)CC1 [Example 63, Ethyl 4-(4-bromobenzyl)-1-((1,3,5-trimethyl-1H-pyrazol-4-yl)sulfonyl)piperidine-4-carboxylate]
  IC50: 0.64 µM

## Cc1n[nH]c(C)c1S(=O)(=O)N1CCC(Oc2ccc(OC(F)(F)F)cc2)CC1 [Example 32, 1-[(3,5-Dimethyl-1H-pyrazol-4-yl)sulfonyl]-4-[4-(trifluoromethoxy)phenoxy]piperidine]
  IC50: 3.4 µM

## COc1cc(Cl)ccc1CC1(F)CCN(S(=O)(=O)c2c(C)nn(C)c2C)CC1 [Example 91, 4-(4-Chloro-2-methoxybenzyl)-4-fluoro-1-((1,3,5-trimethyl-1H-pyrazol-4-yl)sulfonyl)piperidine]
  IC50: 0.14 µM

## Cc1n[nH]c(C)c1S(=O)(=O)N1CCC(C#N)(Cc2ccc(Cl)cc2)CC1 [Example 64, 4-(4-Chlorobenzyl)-1-((3,5-dimethyl-1H-pyrazol-4-yl)sulfonyl)piperidine-4-carbonitrile]
  IC50: 0.89 µM

## COC(c1ccc(Cl)cc1)C1CCN(S(=O)(=O)c2c(C)n[nH]c2C)CC1 (single isomer, unassigned) [Example 97, 4-((4-Chlorophenyl)(methoxy)methyl)-1-((3,5-dimethyl-1H-pyrazol-4-yl)sulfonyl)piperidine]
  IC50: 4.62 µM

## Cc1n[nH]c(C)c1S(=O)(=O)N1CCC(C#N)(Cc2ccc(Cl)cc2Cl)CC1 [Example 65, 4-(2,4-Dichlorobenzyl)-1-((3,5-dimethyl-1H-pyrazol-4-yl)sulfonyl)piperidine-4-carbonitrile]
  IC50: 0.94 µM

## COC1(Cc2ccc(Cl)cc2)CCN(S(=O)(=O)c2c(C)nn(C)c2C)CC1 [Example 58, 4-(4-Chlorobenzyl)-4-methoxy-1-((1,3,5-trimethyl-1H-pyrazol-4-yl)sulfonyl)piperidine]
  IC50: 2.4 µM

## COc1ccc(OC2CCN(S(=O)(=O)c3c(C)n[nH]c3C)CC2)cc1F [Example 41, 1-(3,5-Dimethyl-1H-pyrazole-4-sulfonyl)-4-(3-fluoro-4-methoxyphenoxy)piperidine]
  IC50: 5.9 µM

## Cc1nn(C)c(C)c1S(=O)(=O)N1CCC(Oc2ccc(Cl)cc2)C(C)C1 (stereo not drawn) [Example 21, 4-(4-Chlorophenoxy)-3-methyl-1-[(1,3,5-trimethyl-1H-pyrazol-4-yl)sulfonyl]piperidine]
  IC50: 2.1 µM

## CCn1nc(C)c(S(=O)(=O)N2CCC(Oc3ccc(C)cc3)CC2)c1C [Example 9, 1-[(1-Ethyl-3,5-dimethyl-1H-pyrazol-4-yl)sulfonyl]-4-(4-methylphenoxy)piperidine]
  IC50: 2.3 µM

## Cc1nn(C)c(C)c1S(=O)(=O)N1CCC(Oc2ccc(Cl)c(F)c2)CC1 [Example 45, 4-(4-Chloro-3-fluorophenoxy)-1-(trimethyl-1H-pyrazole-4-sulfonyl)piperidine]
  IC50: 1.4 µM

## Cc1ccc(OC2CCN(S(=O)(=O)c3c(C)nn(C)c3C)CC2)cc1 [Example 4, 4-(4-Methylphenoxy)-1-[(1,3,5-trimethyl-1H-pyrazol-4-yl)sulfonyl]piperidine]
  IC50: 0.82 µM

## Cc1nn(C)c(C)c1S(=O)(=O)N1CCC(Cc2ccc(Cl)cc2)CC1 [Example 55, 4-(4-Chlorobenzyl)-1-((1,3,5-trimethyl-1H-pyrazol-4-yl)sulfonyl)piperidine]
  IC50: 0.52 µM

## CCc1nn(C)c(CC)c1S(=O)(=O)N1CCC(Oc2ccc(Cl)cc2Cl)CC1 [Example 28, 4-(2,4-Dichlorophenoxy)-1-[(3,5-diethyl-1-methyl-1H-pyrazol-4-yl)sulfonyl]piperidine]
  IC50: 0.32 µM

## Cc1n[nH]c(C)c1S(=O)(=O)N1CCC(Cc2ccc(Cl)cc2)CC1 [Example 67, 4-(4-Chlorobenzyl)-1-((3,5-dimethyl-1H-pyrazol-4-yl)sulfonyl)piperidine]
  IC50: 0.52 µM

## Cc1nn(C)c(C)c1S(=O)(=O)N1CCC(Oc2ccccc2)CC1 [Example 19, 4-Phenoxy-1-[(1,3,5-trimethyl-1H-pyrazol-4-yl)sulfonyl]piperidine]
  IC50: 5.6 µM

## Cc1nn(C)c(C)c1S(=O)(=O)N1CCC(Oc2ccc(Cl)cc2Cl)CC1 [Example 13, 4-(2,4-Dichlorophenoxy)-1-[(1,3,5-trimethyl-1H-pyrazol-4-yl)sulfonyl]piperidine]
  IC50: 0.79 µM

## Cc1nn(C)c(C)c1S(=O)(=O)N1CCC(Oc2ncc(Cl)cc2F)CC1 [Example 77, 5-Chloro-3-fluoro-2-((1-((1,3,5-trimethyl-1H-pyrazol-4-yl)sulfonyl)piperidin-4-yl)oxy)pyridine]
  IC50: 3.19 µM

## Cc1n[nH]c(C)c1S(=O)(=O)N1CCC(Oc2ccc(Cl)c(F)c2)CC1 [Example 47, 4-(4-Chloro-3-fluorophenoxy)-1-(3,5-dimethyl-1H-pyrazole-4-sulfonyl)piperidine]
  IC50: 1.9 µM

## COc1cc(Cl)ccc1CC1CCN(S(=O)(=O)c2c(C)nn(C)c2C)CC1 [Example 79, 4-(4-Chloro-2-methoxybenzyl)-1-((1,3,5-trimethyl-1H-pyrazol-4-yl)sulfonyl)piperidine]
  IC50: 0.05 µM

## Cc1nn(C)c(C)c1S(=O)(=O)N1CCC(Oc2ccc3ccccc3c2)CC1 [Example 23, 4-(Naphthalen-2-yloxy)-1-[(1,3,5-trimethyl-1H-pyrazol-4-yl)sulfonyl]piperidine]
  IC50: 0.22 µM
